Some test systems named below: A498 renal; CCRF-CEM leukemia; HOP-92 NSCLC; LOX IMVI melanoma; MCF7 breast; NCI-H226 lung; NCI-H460 lung; RPMI-8226 leukemia; SF-268 CNS; U251 CNS.
What all share (assay): NCI tumour cell line growth inhibition, 48 h

SMILES strings stand for the structures.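 Following 48 hours of exposure in 96-well plates, responses at five concentrations were used to interpolate endpoints linearly. At the GI50, growth is halved. Definition used: TGI = concentration required for complete inhibition of growth.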 Bounds are passed on as bounds.

Experimental findings from PubChem BioAssay (NCI) are described below.

For the compound `CN1CCN(C(=O)/C=C/c2ccc([N+](=O)[O-])o2)CC1`, the GI50 was 16.8 µM in the assay with A498 renal; 2.72 µM with CCRF-CEM leukemia; 11.4 µM in the assay on HOP-92 NSCLC; 4.46 µM in the assay on LOX IMVI melanoma; 10.9 µM in the assay with MCF7 breast; 22.4 µM with NCI-H226 lung. Moreover, the GI50 in the assay on NCI-H460 lung is 14.9 µM; with RPMI-8226 leukemia, 16 µM; in the assay on SF-268 CNS, 20.9 µM; in the assay with U251 CNS, 17.1 µM. Also, the TGI is 34.3 µM with A498 renal; 27.9 µM in the assay on CCRF-CEM leukemia; 26.1 µM in the assay with HOP-92 NSCLC; 17 µM in the assay with LOX IMVI melanoma; 38.1 µM in the assay with MCF7 breast; 60 µM with NCI-H226 lung. For the same compound, the TGI in the assay on NCI-H460 lung is 45.1 µM; with RPMI-8226 leukemia, 64.5 µM; in the assay on SF-268 CNS, 84.1 µM; with U251 CNS, 55.1 µM.

As to `COc1cc(/C=C/C(=O)c2nc3cc(F)ccc3nc2C)cc(OC)c1OC`, the GI50 in the assay on A498 renal is 5.78 µM; in the assay with CCRF-CEM leukemia, 1.85 µM; in the assay on HOP-92 NSCLC it was 2.81 µM; in the assay with LOX IMVI melanoma, 2.84 µM; with MCF7 breast, 2.3 µM; in the assay on NCI-H226 lung it was greater than 100 µM. Further, the GI50 is 4.05 µM in the assay with NCI-H460 lung, 0.327 µM in the assay with RPMI-8226 leukemia, 7.01 µM with SF-268 CNS and 3.54 µM with U251 CNS. The TGI is greater than 100 µM with A498 renal; greater than 21 µM in the assay on CCRF-CEM leukemia; greater than 100 µM in the assay with HOP-92 NSCLC; greater than 22.1 µM with LOX IMVI melanoma; greater than 100 µM in the assay with MCF7 breast; greater than 100 µM with NCI-H226 lung. In addition, the TGI was greater than 100 µM with NCI-H460 lung, 3.07 µM in the assay with RPMI-8226 leukemia, greater than 100 µM in the assay with SF-268 CNS and greater than 100 µM in the assay on U251 CNS.

For the compound `CC1(C)CC2=NO[Se]3=C2C(=NO3)C1`, the TGI was 10.4 µM in the assay on A498 renal; 30.4 µM in the assay with CCRF-CEM leukemia; 8.21 µM with HOP-92 NSCLC; 9.39 µM with LOX IMVI melanoma; 14.2 µM in the assay on MCF7 breast; 11.6 µM in the assay with NCI-H226 lung. In addition, the TGI in the assay on NCI-H460 lung is 4.05 µM; with RPMI-8226 leukemia it was 18.5 µM; with SF-268 CNS, 56.3 µM; in the assay on U251 CNS, 18.7 µM.

Turning to `O=C1NC(=O)N(S(=O)(=O)c2cc(C(=O)Nc3ccc(Cl)cc3)c(Cl)cc2S)S(=O)(=O)N1`, the GI50 was 15.5 µM with A498 renal; 8.53 µM in the assay with CCRF-CEM leukemia; 12.9 µM in the assay on HOP-92 NSCLC; 17 µM in the assay on LOX IMVI melanoma; 23.6 µM in the assay on MCF7 breast; 22.2 µM in the assay on NCI-H226 lung. Besides, the GI50 was 16.3 µM in the assay with NCI-H460 lung, 17.7 µM in the assay with RPMI-8226 leukemia, 16.9 µM with SF-268 CNS and 15.1 µM in the assay on U251 CNS. Also, the TGI in the assay on A498 renal amounted to 30.1 µM; in the assay with CCRF-CEM leukemia, 26.9 µM; in the assay with HOP-92 NSCLC it was 44.3 µM; in the assay with LOX IMVI melanoma, 34.3 µM; in the assay on MCF7 breast, 91.8 µM; in the assay with NCI-H226 lung it was 56.1 µM. Moreover, the TGI with NCI-H460 lung worked out at 40.3 µM; in the assay on RPMI-8226 leukemia, 55.7 µM; in the assay on SF-268 CNS, 46.6 µM; in the assay with U251 CNS it was 34.3 µM.

Take `O=C1c2ccccc2N1C(=O)c1ccccc1[N+](=O)[O-]`: the TGI is greater than 100 µM in the assay with A498 renal; greater than 100 µM in the assay with CCRF-CEM leukemia; greater than 100 µM with HOP-92 NSCLC; 81.6 µM in the assay on LOX IMVI melanoma; greater than 100 µM in the assay on MCF7 breast; greater than 100 µM in the assay on NCI-H226 lung. The TGI in the assay on NCI-H460 lung, in the assay with RPMI-8226 leukemia, with SF-268 CNS and with U251 CNS was greater than 100 µM in each case.

For the compound `CCOC(=O)C#Cc1c(C(=O)OCC)nnn1[C@@H]1O[C@H](COC)[C@@H](OC)[C@H]1OC`, the GI50 in the assay with A498 renal was 18.2 µM; in the assay on CCRF-CEM leukemia, 1.87 µM; in the assay with HOP-92 NSCLC, 2.8 µM; in the assay on LOX IMVI melanoma, 1.16 µM; in the assay with MCF7 breast it was 2.85 µM; in the assay on NCI-H226 lung, 1.65 µM. Further, the GI50 is 17.8 µM in the assay with NCI-H460 lung, 4.16 µM in the assay on RPMI-8226 leukemia, 16.3 µM in the assay with SF-268 CNS and 17 µM with U251 CNS. Further, the TGI worked out at 32.9 µM with A498 renal; 4.93 µM with CCRF-CEM leukemia; 7.61 µM with HOP-92 NSCLC; 2.58 µM with LOX IMVI melanoma; 12.7 µM with MCF7 breast; 3.18 µM in the assay with NCI-H226 lung. The TGI in the assay with NCI-H460 lung came out at 36.2 µM; with RPMI-8226 leukemia it was 17.2 µM; in the assay on SF-268 CNS, 35.6 µM; in the assay on U251 CNS it was 31.3 µM.

As for `O=C(NO)c1ccc(CNc2cccc3nc(C4CC4)n(-c4ccccc4)c(=O)c23)cc1`, the GI50 with A498 renal was 1.87 µM; in the assay on CCRF-CEM leukemia, 1.5 µM; in the assay with HOP-92 NSCLC, 1.99 µM; in the assay on MCF7 breast it was 3.35 µM; with NCI-H226 lung, 2.93 µM; in the assay with NCI-H460 lung, 1.9 µM. Moreover, the figures for the GI50 with RPMI-8226 leukemia and in the assay on U251 CNS were 2.69 µM and 1.63 µM, respectively. Moreover, the TGI in the assay with A498 renal was 4.03 µM; with CCRF-CEM leukemia, greater than 100 µM; with HOP-92 NSCLC it was 6.82 µM; in the assay with MCF7 breast, 18 µM; with NCI-H226 lung, 15 µM; in the assay with NCI-H460 lung, 5.65 µM. Moreover, the TGI in the assay on RPMI-8226 leukemia stood at 11.3 µM; in the assay on U251 CNS it was 3.23 µM.

Turning to `O=C1c2ccccc2-c2c1c1c(O)cccc1n2Cc1ccccc1`, the GI50 was 6.24 µM with A498 renal; 4.22 µM in the assay with HOP-92 NSCLC; 10.1 µM with LOX IMVI melanoma; 6.75 µM in the assay with MCF7 breast; greater than 100 µM with NCI-H226 lung; 10.3 µM in the assay on NCI-H460 lung. Also, the GI50 is 30 µM in the assay on RPMI-8226 leukemia, 6.58 µM in the assay with SF-268 CNS and 15.2 µM with U251 CNS. Besides, the TGI with A498 renal is 25 µM; in the assay with HOP-92 NSCLC, 19.8 µM; with LOX IMVI melanoma, greater than 100 µM; with MCF7 breast, 30.8 µM; in the assay with NCI-H226 lung, greater than 100 µM; with NCI-H460 lung it was 45.6 µM. Besides, the TGI in the assay on RPMI-8226 leukemia was greater than 100 µM; with SF-268 CNS, 37.9 µM; in the assay on U251 CNS, 67.1 µM.
